In patent US10392422B2, “Macrocyclic broad spectrum antibiotics” (priority 2014, dated 2019):
In brackets after ≈: the same amount, converted by molar mass. Like-named read-outs stand apart in the source and are kept apart here.

What was measured:
Assay in all cases: MIC, broth micro-dilution technique (CLSI)
[1] = test system: Escherichia coli MC4100 harboring the IMP4213; type: cell-based; conditions: Escherichia coli, 22 h
Outline: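 Susceptibility is tested by broth micro-dilution per CLSI, using ten serial 2-fold dilutions beginning at 64 μg/ml or, in a modified version, 4 μg/mL. The E. coli MC4100 strain carries an imp allele raising outer-membrane permeability.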

[2] = test system: Methicillin Resistant Staphylococcus aureus strain USA 300 (NRS384); type: cell-based; conditions: Staphylococcus aureus, 22 h, read-out: MIC (μg/mL) S. aureus
Outline: (§1)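 Cation-adjusted MHB + 0.002% Tween-80; 10-point 2-fold series starting 64 μg/ml (modified protocol: 4 μg/mL). Final inoculum OD600 0.0005; 35° C, 22 h. MIC per CLSI M07-A8 broth microdilution.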

MRSA COL (NRS100) = type: cell-based, Staphylococcus aureus; conditions: Staphylococcus aureus, 22 h, read-out: MIC (μg/mL) (COL)
Outline: as §1

[3] = read-out: MIC (μg/mL) E. coli, Table 1 protocol: serial 2-fold dilutions starting from 64 μg/ml, 35° C., 22 hours
[4] = Table 1 protocol: serial 2-fold dilutions starting from 64 μg/ml, 35° C., 22 hours
[5] = read-out: MIC (μg/mL) E. coli, Table 2 modified protocol: serial 2-fold dilutions starting from 4 μg/mL, 35° C., 22 hours
[6] = Table 2 modified protocol: serial 2-fold dilutions starting from 4 μg/mL, 35° C., 22 hours

SMILES | MIC [1, 3] [µg/mL] | MIC [2] [µg/mL] | MIC (MRSA COL (NRS100)) [µg/mL] | MIC [1, 5] [µg/mL] | further results
CCCCCCCCCCCCCC(=O)N(C)[C@@H]1C(=O)N[C@@H](C)C(=O)N[C@H](C(=O)N[C@@H](C)B2O[C@@H]3C[C@@H]4C[C@@H](C4(C)C)[C@]3(C)O2)Cc2ccc(OCCN)c(c2)-c2cc1ccc2OCCN [Compound 315] | 1 (≈ 1.09 µM) | 1 (≈ 1.09 µM) | 0.5 (≈ 0.546 µM) | – | –
CCCCc1ccc(-c2ccc(C(=O)N[C@@H](CCCCN)C(=O)N(C)[C@@H]3C(=O)N[C@@H](C)C(=O)N[C@H](C(=O)N[C@@H](C)B4O[C@@H]5C[C@@H]6C[C@@H](C6(C)C)[C@]5(C)O4)Cc4ccc(OCCN)c(c4)-c4cc3ccc4OCCN)cc2)cc1 [Compound 316] | 0.094 (≈ 0.0879 µM) | 0.13 (≈ 0.122 µM) | 0.031 (≈ 0.029 µM) | – | –
CCCCc1ccc(-c2ccc(C(=O)N[C@@H](CN)C(=O)N(C)[C@@H]3C(=O)N[C@@H](C)C(=O)N[C@H](C(=O)N[C@@H](C)B4O[C@@H]5C[C@@H]6C[C@@H](C6(C)C)[C@]5(C)O4)Cc4ccc(OCCN)c(c4)-c4cc3ccc4OCCN)cc2)cc1 [Compound 317] | 0.13 (≈ 0.127 µM) | 0.13 (≈ 0.127 µM) | 0.063 (≈ 0.0613 µM) | – | –
CCCCCCCCc1ccc(C(=O)N[C@@H](CCCN)C(=O)N(C)[C@@H]2C(=O)N[C@@H](C)C(=O)N[C@H](C(=O)N[C@@H](C)B3O[C@@H]4C[C@@H]5C[C@@H](C5(C)C)[C@]4(C)O3)Cc3ccc(OC)c(c3)-c3cc2ccc3OC)cc1 [Compound 319] | 0.75 (≈ 0.768 µM) | 2 (≈ 2.05 µM) | 1 (≈ 1.02 µM) | – | –
CCCCCCCCc1ccc(C(=O)N(C)[C@@H]2C(=O)N[C@@H](C)C(=O)N[C@H](C(=O)NCB3O[C@@H]4C[C@@H]5C[C@@H](C5(C)C)[C@]4(C)O3)Cc3ccc(OCCN)c(c3)-c3cc2ccc3OCCN)cc1 [Compound 320] | 4 (≈ 4.41 µM) | 6 (≈ 6.62 µM) | 2 (≈ 2.21 µM) | – | –
CCCCCCCCc1ccc(C(=O)N[C@@H](CCCN)C(=O)N(C)[C@@H]2C(=O)N[C@@H](C)C(=O)N[C@H](C(=O)N[C@@H](C)B3O[C@@H]4C[C@@H]5C[C@@H](C5(C)C)[C@]4(C)O3)Cc3ccc(OCCN)c(c3)-c3cc2ccc3OCCN)c(C)c1 [Compound 321] | 0.063 (≈ 0.06 µM) | 0.094 (≈ 0.0896 µM) | 0.063 (≈ 0.06 µM) | – | –
CCCCCCCCc1ccc(C(=O)N[C@@H](CCCN)C(=O)N(C)[C@@H]2C(=O)N[C@@H](C)C(=O)N[C@H](C(=O)N[C@@H](C)B(O)O)Cc3ccc(OCCN)c(c3)-c3cc2ccc3OCCN)c(F)c1 [Compound 322] | 0.13 (≈ 0.141 µM) | – | – | – | MIC [2, 4]: 0.13 µg/mL (≈ 0.141 µM); MIC (MRSA COL (NRS100); [4]): 0.063 µg/mL (≈ 0.0686 µM)
CCCCCCCCc1ccc(C(=O)N[C@@H](CCCN)C(=O)N(C)[C@@H]2C(=O)N[C@@H](C)C(=O)N[C@H](C(=O)N[C@@H](C)B3O[C@@H]4C[C@@H]5C[C@@H](C5(C)C)[C@]4(C)O3)Cc3ccc(OCCCN)c(c3)-c3cc2ccc3OCCCN)cc1 [Compound 323] | – | 0.13 (≈ 0.122 µM) | 0.031 (≈ 0.0292 µM) | 0.063 (≈ 0.0593 µM) | –
CCCCCCCCc1ccc(C(=O)N[C@@H](CCCN)C(=O)N(C)[C@@H]2C(=O)N[C@@H](C)C(=O)N[C@H](C(=O)NCB3O[C@@H]4C[C@@H]5C[C@@H](C5(C)C)[C@]4(C)O3)Cc3ccc(OCCN)c(c3)-c3cc2ccc3OCCN)cc1 [Compound 324] | – | 0.25 (≈ 0.245 µM) | 0.13 (≈ 0.127 µM) | 0.13 (≈ 0.127 µM) | –
CCCCCCCCCCCCCC(=O)N[C@@H](CCN)C(=O)N(C)[C@@H]1C(=O)N[C@@H](C)C(=O)N[C@H](C(=O)N[C@@H](C)B2O[C@@H]3C[C@@H]4C[C@@H](C4(C)C)[C@]3(C)O2)Cc2ccc(OCCN)c(c2)-c2cc1ccc2OCCN [Compound 325] | – | 0.13 (≈ 0.128 µM) | 0.023 (≈ 0.0227 µM) | 0.13 (≈ 0.128 µM) | –
CCCCCCCCc1ccc(C(=O)N[C@@H](CCCN)C(=O)N(C)[C@@H]2C(=O)N[C@@H](C)C(=O)N[C@H](C(=O)NCB(O)O)Cc3ccc(OCCN)c(c3)-c3cc2ccc3OCCN)cc1 [Compound 326] | – | – | – | 0.19 (≈ 0.214 µM) | MIC [2, 6]: 0.25 µg/mL (≈ 0.282 µM); MIC (MRSA COL (NRS100); [6]): 0.13 µg/mL (≈ 0.147 µM)
CCCCc1ccc(-c2ccc(C(=O)N[C@@H](CCCN)C(=O)N(C)[C@@H]3C(=O)N[C@@H](C)C(=O)N[C@H](C(=O)NC/C=C/S(C)(=O)=O)Cc4ccc(OCCN)c(c4)-c4cc3ccc4OCCN)cc2)cc1 [Compound 327] | – | – | – | 0.5 (≈ 0.517 µM) | MIC [2, 6]: 0.5 µg/mL (≈ 0.517 µM); MIC (MRSA COL (NRS100); [6]): 0.13 µg/mL (≈ 0.134 µM)
CCCCc1ccc(-c2ccc(C(=O)N[C@@H](CCCCN)C(=O)N(C)[C@@H]3C(=O)N[C@@H](C)C(=O)N[C@H](C(=O)NCc4nnn[nH]4)Cc4ccc(OCCN)c(c4)-c4cc3ccc4OCCN)cc2)cc1 [Compound 328] | – | 2 (≈ 2.12 µM) | 0.5 (≈ 0.529 µM) | – | MIC ([1]; read-out: MIC (μg/mL) E. coli): 0.25 µg/mL (≈ 0.265 µM)
CCCCc1ccc(-c2ccc(C(=O)N[C@@H](CCCCN)C(=O)N(C)[C@@H]3C(=O)N[C@@H](C)C(=O)N[C@H](C(=O)NCc4nnn[nH]4)Cc4ccc(O)c(c4)-c4cc3ccc4OCCN)cc2)cc1 [Compound 329] | – | > 4 | 2 (≈ 2.22 µM) | – | MIC ([1]; read-out: MIC (μg/mL) E. coli): 0.38 µg/mL (≈ 0.421 µM)
